EC50 data for 22 molecules are collected here from patent publication US11384078B2, “5,6-fused-bicyclic compounds and compositions for the treatment of parasitic diseases” (NOVARTIS AG, priority 2017, dated 2022).

Type in all cases: cell-based
Experiment [1] has as its system L. donovani HU3 strain in mouse peritoneal macrophages. Kind of experiment: Assay for inhibition of parasitemia of Leishmania donovani in mouse macrophages (SYBR Green nuclei count, high-content imaging). The following applies: Leishmania donovani, Peritoneal macrophage, L. donovani in mouse peritoneal macrophages; read-out: L. donovani in Mouse Macrophages EC50. An outline of the steps:
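Peritoneal macrophages from uninfected BALB/c mice were infected for 24 h with spleen-derived L. donovani HU3 (4×10^5 parasites per 2×10^4 macrophages), then cultured with compound for 5 days at 37° C, 5% CO2. After fixation and permeabilization, parasite nuclei were stained with SYBR Green and counted by high-content imaging.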

Experiment [2] relates to Trypanosoma cruzi amastigotes cultured in 3T3 fibroblast cells. Kind of experiment: Assay for growth inhibition of kinetoplastid parasite Trypanosoma cruzi (beta-galactosidase Tulahuen strain, CPRG readout). The note with it: Trypanosoma cruzi, Fibroblast, T. cruzi amastigotes in 3T3 fibroblast cells; read-out: Buckner infectious T. cruzi EC50. A digest of the protocol:
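3T3 fibroblasts (1,000 cells/well) plated overnight, treated with compound in DMSO, then infected with 10,000 Lac-Z-expressing Tulahuen trypomastigotes. After 6 days, 0.6 mM CPRG with 0.6% NP-40 added for 2 h at room temperature; absorbance gives relative intracellular amastigote numbers. Benznidazole and nifurtimox serve as positive controls.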

In experiment [3] the test system is Trypanosoma brucei brucei (Lister 427) strain. Kind of experiment: Assay for growth inhibition against Trypanosoma brucei brucei (Cell TiterGlo ATP luminescence). The note with it: T. brucei brucei (Lister 427), read-out: T. Brucei (HAT) EC50. An outline of the steps: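 T. b. brucei Lister 427 grown in HMI-9 with 10% FBS and 10% serum plus, seeded at 10,000 parasites/mL with 10-point threefold compound dilutions in duplicate, 37 °C for 2 days. Viability read as ATP luminescence 30 min after Cell TiterGlo; IC50 versus untreated controls.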
On the technique in general: ATP-based viability assays read luminescence as a measure of living cells.

Experiment [4] deals with Leishmania donovani axenic amastigote. Kind of experiment: In vitro assay for growth inhibition of Leishmania donovani axenic amastigote (Cell TiterGlo luminescence). The note with it: Leishmania donovani, L. donovani axenic amastigotes in vitro; read-out: L. donovani amastigotes EC50. A digest of the protocol: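 Axenic L. donovani amastigotes (9600/well) grown at 37 °C, 5% CO2 in supplemented RPMI 1640, pH 5.5, with compound added from DMSO. After two days, viability read by CellTiter-Glo luminescence against DMSO and control-compound wells.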

Where two headings read alike, the source gives them in different places.

By EC50 is commonly meant the concentration giving half of the maximal effect.

Turning to `O=C(Nc1ccc(F)c(-n2cc3cc(N4CC(C(F)(F)F)C4)cnc3n2)c1)N1CC(F)C1` [Compound 265, 3-fluoro-N-(4-fluoro-3-(5-(3-(trifluoromethyl)azetidin-1-yl)-2H-pyrazolo[3,4-b]pyridin-2-yl)phenyl)azetidine-1-carboxamide], the EC50 in experiment [1] worked out at 4 nM; in experiment [2], 2 nM; in experiment [3] (Trypanosoma brucei), 1 nM; in experiment [4] it was 3 nM.

Consider `O=C(Nc1ccc(F)c(-n2cc3cc(N4CC(F)C4)cnc3n2)c1)N1CCC1` [Compound 292, N-{4-fluoro-3-[5-(3-fluoroazetidin-1-yl)-2H-pyrazolo[3,4-b]pyridin-2-yl]phenyl}azetidine-1-carboxamide], for which the EC50 was 8 nM in experiment [1], 3 nM in experiment [2], 5 nM in experiment [3] and 5 nM in experiment [4].

Take `O=C(Nc1ccc(F)c(-n2cc3cc(-c4ccccn4)cnc3n2)c1)[C@@H]1C[C@H]1F` (single isomer, unassigned) [Compound 256]: the EC50 amounted to 38 nM in experiment [1], 5 nM in experiment [2], 27 nM in experiment [3] (Trypanosoma brucei) and 11 nM in experiment [4].

`CC(C)(C)Cc1cnc2nn(-c3cc(NC(=O)c4ccco4)ccc3F)cc2c1` [Compound 59, N-{3-[5-(2,2-dimethylpropyl)-2H-pyrazolo[3,4-b]pyridin-2-yl]-4-fluorophenyl}furan-2-carboxamide]: the EC50 is 21 nM in experiment [1], 4.7 nM in experiment [2], < 23 nM in experiment [3] (Trypanosoma brucei) and 68 nM in experiment [4].

For `O=C(Nc1ccc(F)c(-n2cc3cc(C4CCCCC4)cnc3n2)c1)N1CC(F)C1` [Compound 19, N-(3-{5-cyclohexyl-2H-pyrazolo[3,4-b]pyridin-2-yl}-4-fluorophenyl)-3-fluoroazetidine-1-carboxamide], the EC50 is 81 nM in experiment [1], 11 nM in experiment [2], < 23 nM in experiment [3] (Trypanosoma brucei) and 11 nM in experiment [4].

With `Cc1cnc(C(=O)Nc2ccc(F)c(-n3cc4cc(C(C)C)cnc4n3)c2)cn1` [Compound 65, N-{4-fluoro-3-[5-(propan-2-yl)-2H-pyrazolo[3,4-b]pyridin-2-yl]phenyl}-5-methylpyrazine-2-carboxamide], the EC50 in experiment [1] stood at 1200 nM; in experiment [2], 960 nM; in experiment [3] (Trypanosoma brucei) it was 1400 nM; in experiment [4], 1000 nM.

Take `CC(C)c1cnc2nn(-c3cc(NC(=O)c4cnccn4)ccc3F)cc2c1` [Compound 87, N-(4-fluoro-3-(5-isopropyl-2H-pyrazolo[3,4-b]pyridin-2-yl)phenyl)pyrazine-2-carboxamide]: the EC50 in experiment [1] is 71 nM; in experiment [2], 16 nM; in experiment [3] (Trypanosoma brucei) it was < 23 nM; in experiment [4] it was 62 nM.

`O=C(Nc1ccc(F)c(-n2cc3cc(N4CCC4)cnc3n2)c1)c1ccco1` [Compound 151, N-{3-[5-(azetidin-1-yl)-2H-pyrazolo[3,4-b]pyridin-2-yl]-4-fluorophenyl}furan-2-carboxamide]: the EC50 in experiment [1] was 13 nM; in experiment [2] it was 12 nM; in experiment [3] (Trypanosoma brucei) it was < 23 nM; in experiment [4], 60 nM.

As for `CC(C)c1cnc2nn(-c3cc(NC(=O)c4cnc(C5CC5)o4)ccc3F)cc2c1` [Compound 75, 2-cyclopropyl-N-{4-fluoro-3-[5-(propan-2-yl)-2H-pyrazolo[3,4-b]pyridin-2-yl]phenyl}-1,3-oxazole-5-carboxamide], the EC50 in experiment [1] was 170 nM; in experiment [2], 120 nM; in experiment [3] (Trypanosoma brucei), 170 nM; in experiment [4], 200 nM.

Consider `O=C(Nc1ccc(F)c(-n2cc3cc(Br)cnc3n2)c1)N1CC2(CC2)C1` [Compound 254, N-(3-(5-bromo-2H-pyrazolo[3,4-b]pyridin-2-yl)-4-fluorophenyl)-5-azaspiro[2.3]hexane-5-carboxamide], for which the EC50 in experiment [1] stood at 673 nM; in experiment [2] it was 50 nM; in experiment [3] (Trypanosoma brucei), 259 nM; in experiment [4] it was 91 nM.

`O=C(Nc1ccc(F)c(-n2cc3cc(N4CC(C(F)(F)F)C4)cnc3n2)c1)N1CCC1` [Compound 274]: the EC50 in experiment [1] came out at 3 nM; in experiment [2], 1 nM; in experiment [3] (Trypanosoma brucei), 1 nM; in experiment [4], 2 nM.

In the case of `O=C(Nc1ccc(F)c(-n2cc3cc(C4CC4)cnc3n2)c1)N1CC(F)(F)C1` [Compound 29, N-(3-{5-cyclopropyl-2H-pyrazolo[3,4-b]pyridin-2-yl}-4-fluorophenyl)-3,3-difluoroazetidine-1-carboxamide], the EC50 in experiment [1] is 9.7 nM; in experiment [2], 11 nM; in experiment [3] (Trypanosoma brucei) it was < 23 nM; in experiment [4] it was 8.2 nM.

Take `Cc1ncc(C(=O)Nc2ccc(F)c(-n3cc4cc(C(C)C)cnc4n3)c2)o1` [Compound 83, N-{4-fluoro-3-[5-(propan-2-yl)-2H-pyrazolo[3,4-b]pyridin-2-yl]phenyl}-2-methyl-1,3-oxazole-5-carboxamide]: the EC50 in experiment [1] is 7 nM; in experiment [2] it was 7.3 nM; in experiment [3] (Trypanosoma brucei), < 23 nM; in experiment [4], 14 nM.

For the molecule `N#CC1(C(=O)Nc2ccc(F)c(-n3cc4cc(-c5ccccn5)cnc4n3)c2)CC1` [Compound 348, 1-cyano-N-{4-fluoro-3-[5-(pyridin-2-yl)-2H-pyrazolo[3,4-b]pyridin-2-yl]phenyl}cyclopropane-1-carboxamide], the EC50 in experiment [1] is 963 nM; in experiment [2] it was 142 nM; in experiment [3] (Trypanosoma brucei), 112 nM; in experiment [4], 347 nM.

For `O=C(Nc1ccc(F)c(-n2cc3cc(-c4ccccn4)cnc3n2)c1)c1cnccn1` [Compound 345, N-{4-fluoro-3-[5-(pyridin-2-yl)-2H-pyrazolo[3,4-b]pyridin-2-yl]phenyl}pyrazine-2-carboxamide], the EC50 was 33 nM in experiment [1], 4 nM in experiment [2], 5 nM in experiment [3] (Trypanosoma brucei) and 11 nM in experiment [4].

Regarding `CCCC(C)c1cnc2nn(-c3cc(NC(=O)N4CC(F)(F)C4)ccc3F)cc2c1` (stereo not shown) [Compound 34, 3,3-difluoro-N-{4-fluoro-3-[5-(pentan-2-yl)-2H-pyrazolo[3,4-b]pyridin-2-yl]phenyl}azetidine-1-carboxamide], the EC50 worked out at 270 nM in experiment [1], 160 nM in experiment [2], 150 nM in experiment [3] (Trypanosoma brucei) and 200 nM in experiment [4].

In the case of `O=C(Nc1ccc(F)c(-n2cc3cc(C4CCNCC4)cnc3n2)c1)N1CC(F)C1` [Compound 293, 3-fluoro-N-{4-fluoro-3-[5-(piperidin-4-yl)-2H-pyrazolo[3,4-b]pyridin-2-yl]phenyl}azetidine-1-carboxamide], the EC50 is 17600 nM in experiment [1], 1210 nM in experiment [2], 167 nM in experiment [3] (Trypanosoma brucei) and 6820 nM in experiment [4].

Turning to `O=C(Nc1ccc(F)c(-n2cc3cc(-c4ccccn4)cnc3n2)c1)N1CC[C@@H](F)C1` [Compound 53, (3R)-3-fluoro-N-{4-fluoro-3-[5-(pyridin-2-yl)-2H-pyrazolo[3,4-b]pyridin-2-yl]phenyl}pyrrolidine-1-carboxamide], the EC50 was 2 nM in experiment [1], 1 nM in experiment [2], < 23 nM in experiment [3] (Trypanosoma brucei) and 1.3 nM in experiment [4].

Consider `O=C(Nc1ccnc(-n2cc3cc(-c4ccccn4)cnc3n2)c1)N1CCC1` [Compound 341, N-{2-[5-(pyridin-2-yl)-2H-pyrazolo[3,4-b]pyridin-2-yl]pyridin-4-yl}azetidine-1-carboxamide], for which the EC50 was 33 nM in experiment [1], 10 nM in experiment [2], 9 nM in experiment [3] (Trypanosoma brucei) and 6 nM in experiment [4].

On to `CNc1cnc2nn(-c3cc(NC(=O)c4oc(C)nc4C)ccc3F)cc2c1` [Compound 153, N-{4-fluoro-3-[5-(methylamino)-2H-pyrazolo[3,4-b]pyridin-2-yl]phenyl}-2,4-dimethyl-1,3-oxazole-5-carboxamide], for which the EC50 was 27000 nM in experiment [1], 150 nM in experiment [2], 500 nM in experiment [3] (Trypanosoma brucei) and 210 nM in experiment [4].

As to `CC(C)Cc1cnc2nn(-c3cc(NC(=O)N4CC(F)C4)ccc3F)cc2c1` [Compound 14, 3-fluoro-N-{4-fluoro-3-[5-(2-methylpropyl)-2H-pyrazolo[3,4-b]pyridin-2-yl]phenyl}azetidine-1-carboxamide], the EC50 is 9.7 nM in experiment [1], 2 nM in experiment [2], < 23 nM in experiment [3] (Trypanosoma brucei) and 12 nM in experiment [4].

For `O=C(Nc1ccc(F)c(-n2cc3cc(N4CCC(C5COC5)CC4)cnc3n2)c1)N1CC(F)C1` [Compound 238, 3-fluoro-N-(4-fluoro-3-{5-[4-(oxetan-3-yl)piperidin-1-yl]-2H-pyrazolo[3,4-b]pyridin-2-yl}phenyl)azetidine-1-carboxamide], the EC50 was 32 nM in experiment [1], 33 nM in experiment [2], 5 nM in experiment [3] (Trypanosoma brucei) and 25 nM in experiment [4].
